Reference: patent US20240108662A1, “ENGINEERED CELLS FUNCTIONALIZED WITH IMMUNE CHECKPOINT MOLECULES AND USES THEREOF” (The University of North Carolina at Chapel Hill, priority 2020, published 2024)

Tests used:
Assay type in all cases: cell-based, mouse
[1] = system: 2D2 cells (MOG-specific CD4+ T cells); experiment: PD-1 and CTLA-4 expressions of myelin-specific 2D2 cells after co-culture (FACS); conditions: E:T 10:1, 48 h
Description: Myelin-specific CD4 T cell in vitro activation: Mouse IFN-γ and mouse IL-17A secreted from the activated myelin-specific 2D2 cells were quantified by ELISA assays as previously reported^56. […] The cell culture media (contain mainly the 2D2 cells) were preserved. 2D2 cells were collected from the cultured media via centrifugation at 1,000 g for 10 min. The moue IFN-γ and mouse IL-17A concentrations in the supernatants were quantified via mouse IFN-γ ELISA kit (ab100689; Abcam, Cambridge, MA) and mouse IL-17A ELISA kit (ab199081; Abcam, Cambridge, MA), according to manufacturer's instructions. […] MIH4, catalog number: 53-9969-42, Invitrogen), PE-labeled anti-mouse CTLA-4 antibody (clone: […] Stained cells were fixed with 4% paraformaldehyde (4% PFA; Sigma) and kept in dark at 4° C. before further FACS study.

MSCs = experiment: MTS viability assay, MSCs
Description: (§1) In vitro toxicity of Ac4ManNAz and LEF, and viabilities of functionalized MSCs and MOLs: In vitro toxicities of Ac4ManNAz and LEF against MSCs and MOLs, and the viabilities of functionalized MSCs and MOLs were quantified by MTS assay. Briefly, treated/functionalized cells were cultured in complete media for 4 days. The phenol-red media was replaced by phenol red-free DMEM (supplemented with 10% FBS) before quantifying the viabilities via MTS assay according to the manufacturer's protocol. The MSCs were seeded at a density of 2×10^4 cells per well and the MOLs were seeded at a density of 1×10^4 cells per well in a 96-well plate.

MOLs = experiment: MTS viability assay, MOLs
Description: as §1

In the case of Cc1oncc1C(=O)Nc1ccc(C(F)(F)F)cc1 [small-molecule LEF, Leflunomide], the “upregulation of PD-1 and CTLA-4 in co-cultured 2D2 cells” value [1] is reported as “increased the expression of CTLA-4 in the co-cultured 2D2 cells”, the “in vitro toxicity against MSCs” value (MSCs) is reported as “moderate in vitro toxicity” and the “in vitro toxicity against MOLs” value (MOLs) is reported as “insignificant toxicity”.
